Our source for the Activity values is ChEMBL document CHEMBL1147275, “An Antibiotic from Trichoderma Koningii Active Against Soilborne Plant Pathogens” (1989).

What all share (format): functional
Experiment [1] deals with Gaeumannomyces tritici. The experiment is described as follows: Antimicrobial activity of broth culture isolated compound against Gaeumannomyces graminis var. tritici assessed as colony area after 2 days.
In experiment [2] the test system is Gaeumannomyces tritici. The experiment is described as follows: Antimicrobial activity of broth culture isolated compound against Gaeumannomyces graminis var. tritici assessed as colony area after 3 days.
Experiment [3] deals with Gaeumannomyces tritici. The experiment is described as follows: Antimicrobial activity of broth culture isolated compound against Gaeumannomyces graminis var. tritici assessed as colony area after 4 days.
Experiment [4] concerns Gaeumannomyces tritici. The experiment is described as follows: Antimicrobial activity of broth culture isolated compound against Gaeumannomyces graminis var. tritici assessed as colony area after 5 days.
For experiment [5], the system named is Gaeumannomyces tritici. The experiment is described as follows: Antimicrobial activity of broth culture isolated compound against Gaeumannomyces graminis var. tritici assessed as colony area after 6 days.
Experiment [6] has as its system Gaeumannomyces tritici. The experiment is described as follows: Antimicrobial activity of agar culture isolated compound against Gaeumannomyces graminis var. tritici assessed as colony area after 1 day.
Experiment [7] has as its system Gaeumannomyces tritici. The experiment is described as follows: Antimicrobial activity of agar culture isolated compound against Gaeumannomyces graminis var. tritici assessed as colony area after 2 days.
Experiment [8] deals with Gaeumannomyces tritici. The experiment is described as follows: Antimicrobial activity of agar culture isolated compound against Gaeumannomyces graminis var. tritici assessed as colony area after 3 days.
In experiment [9] the test system is Rhizoctonia solani. The experiment is described as follows: Antimicrobial activity of agar culture isolated compound against Rhizoctonia solani assessed as colony area after 1 day.
Experiment [10] relates to Rhizoctonia solani. The experiment is described as follows: Antimicrobial activity of agar culture isolated compound against Rhizoctonia solani assessed as colony area after 2 days.
Experiment [11] relates to Rhizoctonia solani. The experiment is described as follows: Antimicrobial activity of agar culture isolated compound against Rhizoctonia solani assessed as colony area after 3 days.
For experiment [12], the system named is Phytophthora cinnamomi. The experiment is described as follows: Antimicrobial activity of agar culture isolated compound against Phytophthora cinnamomi assessed as colony area after 1 day.
Experiment [13] deals with Phytophthora cinnamomi. The experiment is described as follows: Antimicrobial activity of agar culture isolated compound against Phytophthora cinnamomi assessed as colony area after 2 days.
Experiment [14] deals with Phytophthora cinnamomi. The experiment is described as follows: Antimicrobial activity of agar culture isolated compound against Phytophthora cinnamomi assessed as colony area after 3 days.
The subject of experiment [15] is Globisporangium middletonii. The experiment is described as follows: Antimicrobial activity of agar culture isolated compound against Pythium middletonii assessed as colony area after 1 day.
The subject of experiment [16] is Globisporangium middletonii. The experiment is described as follows: Antimicrobial activity of agar culture isolated compound against Pythium middletonii assessed as colony area after 2 days.
Experiment [17] deals with Globisporangium middletonii. The experiment is described as follows: Antimicrobial activity of agar culture isolated compound against Pythium middletonii assessed as colony area after 3 days.
For experiment [18], the system named is Fusarium oxysporum. The experiment is described as follows: Antimicrobial activity of agar culture isolated compound against Fusarium oxysporum assessed as colony area after 1 day.
The subject of experiment [19] is Fusarium oxysporum. The experiment is described as follows: Antimicrobial activity of agar culture isolated compound against Fusarium oxysporum assessed as colony area after 2 days.
The subject of experiment [20] is Fusarium oxysporum. The experiment is described as follows: Antimicrobial activity of agar culture isolated compound against Fusarium oxysporum assessed as colony area after 3 days.
Experiment [21] deals with Bipolaris sorokiniana. The experiment is described as follows: Antimicrobial activity of agar culture isolated compound against Bipolaris sorokiniana assessed as colony area after 1 day.
Experiment [22] has as its system Bipolaris sorokiniana. The experiment is described as follows: Antimicrobial activity of agar culture isolated compound against Bipolaris sorokiniana assessed as colony area after 2 days.
For experiment [23], the system named is Bipolaris sorokiniana. The experiment is described as follows: Antimicrobial activity of agar culture isolated compound against Bipolaris sorokiniana assessed as colony area after 3 days.

SMILES strings stand for the structures.

Consider `CCCCCC[C@H](O)[C@@H]1C[C@@H](O)C2=C(O1)[C@H](O)CCC2=O`, for which the Activity is 32 mm2 in [1]; 33 mm2 in [2]; 63 mm2 in experiment [3]; 198 mm2 in experiment [4]; 549 mm2 in [5]; 40 mm2 in [6]. Also, the Activity came to 42 mm2 in experiment [7]; 44 mm2 in [8]; 38 mm2 in experiment [9]; 42 mm2 in [10]; 46 mm2 in experiment [11]; 37 mm2 in [12]. Also, the Activity in experiment [13] is reported as 38 mm2; in experiment [14], 92 mm2; in [15], 38 mm2; in experiment [16], 184 mm2; in [17], 232 mm2; in experiment [18] it was 46 mm2. Also, the Activity in experiment [19] turned out to be 103 mm2; in experiment [20], 170 mm2; in experiment [21] it was 44 mm2; in experiment [22], 46 mm2; in experiment [23], 45 mm2.
